In patent US20020026053A1, “Novel 3-(substituted) -2- indolinones compounds and use thereof as inhibitors of protein kinase activity” (priority 1997, published 2002):

Each compound was assayed against T1, Met receptor (EGFR/Met chimeric cells, EMR) (Homo sapiens, UniProt P08581) (assay: Met Autophosphorylation Assay).
T1 construct: expressed in transfected cells; the other entry of the earlier key: EGFR (P00533, Epidermal growth factor receptor)
Assay type: biochemical
Outline: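 Transiently transfected EGFR/Met chimeric (EMR) cells were lysed in HNTG with 1 mM PMSF. Met was captured on plates coated with goat anti-rabbit IgG, then rabbit anti-Met (C-28), using 90 μg lysate/100 μl for 60 min at room temperature. Phosphotyrosine was read by ELISA.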

T1 sequence (P08581 with tags, fused parts or gaps): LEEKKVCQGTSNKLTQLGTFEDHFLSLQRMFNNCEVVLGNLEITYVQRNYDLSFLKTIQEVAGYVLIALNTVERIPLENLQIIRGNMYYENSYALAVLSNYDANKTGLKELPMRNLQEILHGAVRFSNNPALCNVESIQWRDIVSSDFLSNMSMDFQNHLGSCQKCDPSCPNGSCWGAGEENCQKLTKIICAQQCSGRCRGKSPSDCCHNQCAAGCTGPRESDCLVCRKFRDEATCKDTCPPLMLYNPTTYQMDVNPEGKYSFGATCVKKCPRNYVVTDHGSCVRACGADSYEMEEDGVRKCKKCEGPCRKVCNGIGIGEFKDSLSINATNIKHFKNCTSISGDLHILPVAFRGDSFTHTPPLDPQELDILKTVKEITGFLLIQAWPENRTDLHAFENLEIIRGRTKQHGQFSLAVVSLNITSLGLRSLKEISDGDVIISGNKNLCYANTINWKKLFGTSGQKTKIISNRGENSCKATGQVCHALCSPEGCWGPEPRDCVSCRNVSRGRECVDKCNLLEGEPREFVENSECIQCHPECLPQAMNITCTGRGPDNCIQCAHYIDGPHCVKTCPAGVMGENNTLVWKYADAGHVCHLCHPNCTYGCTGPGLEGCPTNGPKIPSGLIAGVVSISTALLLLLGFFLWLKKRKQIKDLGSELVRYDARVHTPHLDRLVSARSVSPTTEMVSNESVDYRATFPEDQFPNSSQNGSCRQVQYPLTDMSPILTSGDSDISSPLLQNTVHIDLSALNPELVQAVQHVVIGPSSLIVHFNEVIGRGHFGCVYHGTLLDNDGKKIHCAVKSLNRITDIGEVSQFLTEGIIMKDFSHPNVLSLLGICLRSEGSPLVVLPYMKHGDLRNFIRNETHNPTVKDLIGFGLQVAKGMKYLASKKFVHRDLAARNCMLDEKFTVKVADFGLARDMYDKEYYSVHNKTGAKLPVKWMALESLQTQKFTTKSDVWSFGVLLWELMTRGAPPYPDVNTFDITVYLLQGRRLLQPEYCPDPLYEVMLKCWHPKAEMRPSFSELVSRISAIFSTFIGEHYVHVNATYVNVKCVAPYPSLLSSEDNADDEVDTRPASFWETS

Compound	Met Kinase % Inhibition (P.130)
Cc1c(Br)cc(Br)c2c1C(=Cc1ccc(O)cc1)C(=O)N2 [10719/H07]	22.9%
Cc1c(Br)cc(Br)c2c1C(=Cc1ccc(N(C)C)cc1)C(=O)N2 [10719/H08]	20.0%
Cc1c(Br)cc(Br)c2c1C(=Cc1ccc(F)cc1Cl)C(=O)N2 [10719/H09]	5.8%
Cc1c(Br)cc(Br)c2c1C(=Cc1cccc([N+](=O)[O-])c1)C(=O)N2 [10719/H10]	−5.7%
Cc1c(Br)cc(Br)c2c1C(=Cc1ccc(F)cc1C(F)(F)F)C(=O)N2 [10719/H11]	50.5%
Cc1c(Br)cc(Br)c2c1C(=Cc1c(F)cc(F)cc1F)C(=O)N2 [10720/H02]	64.1%
COc1cc(O)ccc1C=C1C(=O)Nc2c(Br)cc(Br)c(C)c21 [10720/H03]	40.0%
N#Cc1ccccc1C=C1C(=O)Nc2ccc(CCCl)cc21 [10735/G07]	37.1%
O=C1Nc2ccc(CCCl)cc2C1=Cc1c(F)cccc1F [10735/G08]	29.9%
O=C1Nc2ccc(CCCl)cc2C1=Cc1cccc2ccccc12 [10735/G09]	16.8%
O=C1Nc2ccc(CCCl)cc2C1=Cc1ccc(Cl)cc1Cl [10735/G10]	37.8%
O=C1Nc2ccc(CCCl)cc2C1=Cc1ccc(-c2ccccc2)cc1 [10735/G11]	23.0%
Cc1ccccc1C=C1C(=O)Nc2c(Br)cc(Br)c(C)c21 [10735/H02]	29.2%
Cc1c(Br)cc(Br)c2c1C(=Cc1ccc(F)c(F)c1)C(=O)N2 [10735/H03]	40.8%
Cc1c(Br)cc(Br)c2c1C(=Cc1cc(F)cc(F)c1)C(=O)N2 [10735/H04]	42.9%
Cc1c(Br)cc(Br)c2c1C(=Cc1cccc(C(F)(F)F)c1)C(=O)N2 [10735/H05]	49.8%
Cc1c(Br)cc(Br)c2c1C(=Cc1cc(C(F)(F)F)cc(C(F)(F)F)c1)C(=O)N2 [10735/H06]	57.2%
Cc1c(Br)cc(Br)c2c1C(=Cc1ccccc1C#N)C(=O)N2 [10735/H07]	48.5%
Cc1c(Br)cc(Br)c2c1C(=Cc1c(F)cccc1F)C(=O)N2 [10735/H08]	59.2%
Cc1c(Br)cc(Br)c2c1C(=Cc1cccc3ccccc13)C(=O)N2 [10735/H09]	22.4%
Cc1c(Br)cc(Br)c2c1C(=Cc1ccc(Cl)cc1Cl)C(=O)N2 [10735/H10]	29.9%
Cc1c(Br)cc(Br)c2c1C(=Cc1ccc(-c3ccccc3)cc1)C(=O)N2 [10735/H11]	22.8%
O=C1Nc2c(Br)cc(Br)cc2C1=Cc1ccc(Cl)cc1 [10736/A02]	72.5%
O=C1Nc2c(Br)cc(Br)cc2C1=Cc1ccccc1C(F)(F)F [10736/A03]	42.6%
Cc1cccc(C=C2C(=O)Nc3c(Br)cc(Br)cc32)c1 [10736/A04]	75.2%
Cc1ccc(C=C2C(=O)Nc3c(Br)cc(Br)cc32)cc1 [10736/A05]	73.6%
O=C1Nc2c(Br)cc(Br)cc2C1=Cc1cccc(Cl)c1 [10736/A06]	69.7%

Compound	Met Kinase % Inhibition (P.130)
O=C1Nc2c(Br)cc(Br)cc2C1=Cc1cccc(F)c1 [10736/A07]	55.2%
O=C1Nc2c(Br)cc(Br)cc2C1=Cc1ccccc1F [10736/A08]	58.7%
CCc1ccc(C=C2C(=O)Nc3c(Br)cc(Br)cc32)cc1 [10736/A09]	69.7%
COc1cccc(C=C2C(=O)Nc3c(Br)cc(Br)cc32)c1 [10736/A10]	65.0%
O=C1Nc2c(Br)cc(Br)cc2C1=Cc1ccccc1Cl [10736/A11]	46.1%
O=C1Nc2ccc(I)cc2C1=Cc1ccc(Cl)cc1 [10736/B02]	73.6%
O=C1Nc2ccc(I)cc2C1=Cc1ccccc1C(F)(F)F [10736/B03]	65.5%
Cc1cccc(C=C2C(=O)Nc3ccc(I)cc32)c1 [10736/B04]	65.5%
Cc1ccc(C=C2C(=O)Nc3ccc(I)cc32)cc1 [10736/B05]	63.9%
O=C1Nc2ccc(I)cc2C1=Cc1cccc(Cl)c1 [10736/B06]	60.6%
O=C1Nc2ccc(I)cc2C1=Cc1cccc(F)c1 [10736/B07]	87.2%
O=C1Nc2ccc(I)cc2C1=Cc1ccccc1F [10736/B08]	59.3%
CCc1ccc(C=C2C(=O)Nc3ccc(I)cc32)cc1 [10736/B09]	55.2%
COc1cccc(C=C2C(=O)Nc3ccc(I)cc32)c1 [10736/B10]	52.5%
O=C1Nc2ccc(I)cc2C1=Cc1ccccc1Cl [10736/B11]	47.0%
Cc1c(Br)ccc2c1C(=Cc1ccc(Cl)cc1)C(=O)N2 [10736/C02]	50.1%
Cc1c(Br)ccc2c1C(=Cc1ccccc1C(F)(F)F)C(=O)N2 [10736/C03]	9.9%
Cc1cccc(C=C2C(=O)Nc3ccc(Br)c(C)c32)c1 [10736/C04]	49.0%
Cc1ccc(C=C2C(=O)Nc3ccc(Br)c(C)c32)cc1 [10736/C05]	44.6%
Cc1c(Br)ccc2c1C(=Cc1cccc(Cl)c1)C(=O)N2 [10736/C06]	45.2%
Cc1c(Br)ccc2c1C(=Cc1cccc(F)c1)C(=O)N2 [10736/C07]	55.6%
Cc1c(Br)ccc2c1C(=Cc1ccccc1F)C(=O)N2 [10736/C08]	49.2%
CCc1ccc(C=C2C(=O)Nc3ccc(Br)c(C)c32)cc1 [10736/C09]	27.9%
COc1cccc(C=C2C(=O)Nc3ccc(Br)c(C)c32)c1 [10736/C10]	18.7%
Cc1c(Br)ccc2c1C(=Cc1ccccc1Cl)C(=O)N2 [10736/C11]	11.0%
CNS(=O)(=O)c1ccc2c(c1)C(=Cc1ccc(Cl)cc1)C(=O)N2 [10736/D02]	44.4%
CNS(=O)(=O)c1ccc2c(c1)C(=Cc1ccccc1C(F)(F)F)C(=O)N2 [10736/D03]	14.7%

Compound	Met Kinase % Inhibition (P.130)
CNS(=O)(=O)c1ccc2c(c1)C(=Cc1cccc(C)c1)C(=O)N2 [10736/D04]	8.1%
CNS(=O)(=O)c1ccc2c(c1)C(=Cc1ccc(C)cc1)C(=O)N2 [10736/D05]	3.9%
CNS(=O)(=O)c1ccc2c(c1)C(=Cc1cccc(Cl)c1)C(=O)N2 [10736/D06]	14.7%
CNS(=O)(=O)c1ccc2c(c1)C(=Cc1cccc(F)c1)C(=O)N2 [10736/D07]	15.4%
CNS(=O)(=O)c1ccc2c(c1)C(=Cc1ccccc1F)C(=O)N2 [10736/D08]	13.0%
CCc1ccc(C=C2C(=O)Nc3ccc(S(=O)(=O)NC)cc32)cc1 [10736/D09]	14.1%
CNS(=O)(=O)c1ccc2c(c1)C(=Cc1cccc(OC)c1)C(=O)N2 [10736/D10]	16.9%
CNS(=O)(=O)c1ccc2c(c1)C(=Cc1ccccc1Cl)C(=O)N2 [10736/D11]	22.6%
O=C1Nc2ccc(S(=O)(=O)Nc3ccc(C(F)(F)F)cc3)cc2C1=Cc1ccc(Cl)cc1 [10736/E02]	81.5%
O=C1Nc2ccc(S(=O)(=O)Nc3ccc(C(F)(F)F)cc3)cc2C1=Cc1ccccc1C(F)(F)F [10736/E03]	33.0%
Cc1cccc(C=C2C(=O)Nc3ccc(S(=O)(=O)Nc4ccc(C(F)(F)F)cc4)cc32)c1 [10736/E04]	61.8%
Cc1ccc(C=C2C(=O)Nc3ccc(S(=O)(=O)Nc4ccc(C(F)(F)F)cc4)cc32)cc1 [10736/E05]	57.6%
O=C1Nc2ccc(S(=O)(=O)Nc3ccc(C(F)(F)F)cc3)cc2C1=Cc1cccc(Cl)c1 [10736/E06]	66.6%
O=C1Nc2ccc(S(=O)(=O)Nc3ccc(C(F)(F)F)cc3)cc2C1=Cc1cccc(F)c1 [10736/E07]	45.9%
O=C1Nc2ccc(S(=O)(=O)Nc3ccc(C(F)(F)F)cc3)cc2C1=Cc1ccccc1F [10736/E08]	52.3%
CCc1ccc(C=C2C(=O)Nc3ccc(S(=O)(=O)Nc4ccc(C(F)(F)F)cc4)cc32)cc1 [10736/E09]	53.8%
COc1cccc(C=C2C(=O)Nc3ccc(S(=O)(=O)Nc4ccc(C(F)(F)F)cc4)cc32)c1 [10736/E10]	37.8%
O=C1Nc2ccc(S(=O)(=O)Nc3ccc(C(F)(F)F)cc3)cc2C1=Cc1ccccc1Cl [10736/E11]	64.4%
O=C1Nc2ccc(S(=O)(=O)N3CCOCC3)cc2C1=Cc1ccc(Cl)cc1 [10736/F02]	69.4%
O=C1Nc2ccc(S(=O)(=O)N3CCOCC3)cc2C1=Cc1ccccc1C(F)(F)F [10736/F03]	23.9%
Cc1cccc(C=C2C(=O)Nc3ccc(S(=O)(=O)N4CCOCC4)cc32)c1 [10736/F04]	45.2%
Cc1ccc(C=C2C(=O)Nc3ccc(S(=O)(=O)N4CCOCC4)cc32)cc1 [10736/F05]	19.8%
O=C1Nc2ccc(S(=O)(=O)N3CCOCC3)cc2C1=Cc1cccc(Cl)c1 [10736/F06]	49.0%
O=C1Nc2ccc(S(=O)(=O)N3CCOCC3)cc2C1=Cc1cccc(F)c1 [10736/F07]	10.7%
O=C1Nc2ccc(S(=O)(=O)N3CCOCC3)cc2C1=Cc1ccccc1F [10736/F08]	−0.2%
CCc1ccc(C=C2C(=O)Nc3ccc(S(=O)(=O)N4CCOCC4)cc32)cc1 [10736/F09]	40.2%
